For the assay, the target named is SARS-CoV-2 Main Protease (SARS-CoV-2) (UniProt P0DTD1).

Data on 52 compounds can be found in the COVID Moonshot data (paper PMC11187573), “Identification of SARS-CoV-2 Mpro inhibitors through deep reinforcement learning for de novo drug design and computational chemistry approaches” (RSC Medicinal Chemistry, 2024).

Protocol: Compounds were seeded into assay-ready plates (Greiner 384 low volume, cat 784900) using an Echo 555 acoustic dispenser, and DMSO was back-filled for a uniform concentration in assay plates (DMSO concentration maximum 1%) Screening assays were performed in duplicate at 20µM and 50µM. […] Dose response assays were performed in 12 point dilutions of 2-fold, typically beginning at 100µM. […] Reagents for Mpro assay were dispensed into the assay plate in 10µl volumes for a final volume of 20µL.
Mpro was pre-incubated for 15 minutes at room temperature with compound before addition of substrate and a further 30 minute incubation. Protease reaction was measured in a BMG Pherastar FS with a 480/520 ex/em filter set. Raw data was mapped and normalized to high (Protease with DMSO) and low (No Protease) controls using Genedata Screener software.

For the compound `CCCc1c(C)[nH]c2[nH]n(-c3ccccc3)c(=O)c2c1=O`, the inhibition is, setting by setting: (20.0 µM) 4.23%; (50.0 µM) 2.81%.

Compound `CC(NC(=O)c1cc2n(n1)CCO2)(C(=O)Nc1cncc2ccccc12)c1ccc(Cl)c(Cl)c1` (stereo unspecified) had an IC50 of 8.52 µM. In the case of `CC(C)Cn1cc(NC(=O)NCCC2=CCCCC2)c2ccccc2c1=O`, the inhibition was determined as 25.7% (20.0 µM) and 0.931% (50.0 µM). Take `CCCCN(CCNC(=O)Nc1cn(C)c(=O)c2ccccc12)Cc1ccco1`: the inhibition (20.0 µM) is 6.22% and the inhibition (50.0 µM) was 12.5%.

Turning to `CC(C)Cn1cc(NC(=O)NCC2CCCO2)c2ccccc2c1=O` (stereo unspecified), the inhibition (20.0 µM) was -0.42% and the inhibition (50.0 µM) is 6.75%. As to `COC(=O)c1c(C)nn(-c2ccccc2)c1-c1cc(C)on1`, the inhibition is, setting by setting: (20.0 µM) 18.8%; (50.0 µM) 3.16%. Turning to `COc1ccc(OC)c(CNC(=O)Nc2cn(C)c(=O)c3ccccc23)c1`, the inhibition reads like this: (20.0 µM) 25%; (50.0 µM) 3.4%. For the compound `O=C(Cn1ccnc1[N+](=O)[O-])NCc1ccccc1`, the inhibition is -7.12% (20.0 µM) and 4.09% (50.0 µM). In the case of `Cc1[nH]c2ncnc(NC(=O)c3cccc4c3oc(=O)n4C)c2c1C`, the inhibition (20.0 µM) stood at 2.86% and the inhibition (50.0 µM) is 6.1%. Consider `O=C(Nc1cnn2ccc(N3CCC[C@@H]3c3cc(F)ccc3F)nc12)N1CC[C@H](O)C1` (stereo in doubt), for which the inhibition runs as follows: (20.0 µM) -17.2%; (50.0 µM) -4.24%. With `CC(C)Cn1cc(NC(=O)NC2CCCCCC2)c2ccccc2c1=O`, the inhibition is 4.79% (20.0 µM) and 2.3% (50.0 µM).

Take `Cn1c(-c2ccc(NC(=O)C3CCCCC(=O)N3)cc2)nc2ccccc21` (stereo unspecified): the inhibition runs as follows: (20.0 µM) -3.33%; (50.0 µM) -2.97%. For `COc1cc(Cl)c(C)cc1NC(=O)Nc1cn(C)c(=O)c2ccccc12`, in that order: 23.7% and 5.81%. `COc1ccc(NC(=O)Nc2cn(C)c(=O)c3ccccc23)c(OC)c1`: the inhibition is, setting by setting: (20.0 µM) 7.06%; (50.0 µM) 17.9%. As to `CC(C)Cn1cc(NC(=O)NCc2ccco2)c2ccccc2c1=O`, the inhibition by setting is: (20.0 µM) 50.5%; (50.0 µM) 90.3%. For `CC(NC(=O)Cc1ccc(-n2cnnn2)cc1)(C(=O)Nc1cncc2ccccc12)c1ccc(Cl)c(Cl)c1` (stereo unspecified), the 50% inhibitory concentration (IC50) amounted to 4.64 µM. `Cc1nc2n(n1)CC(C(=O)NC(C)(C(=O)Nc1cncc3ccccc13)c1ccc(Cl)c(Cl)c1)CC2` (stereo unspecified) had a concentration for half-maximal inhibition (IC50) of 4.82 µM.

With `NC(=O)C[S@@+]([O-])C(c1ccccc1)c1ccccc1` (stereo in doubt), the inhibition (20.0 µM) is -1.76% and the inhibition (50.0 µM) was -1.92%. For the compound `Cn1cc(NC(=O)Nc2cccc(C(F)(F)F)c2)c2ccccc2c1=O`, the inhibition (20.0 µM) is -2.91% and the inhibition (50.0 µM) stood at 0.168%. With `O=C(Cc1cc(Cl)cc(Nc2ccc(C(F)(F)F)cn2)c1)Nc1cncc2ccccc12`, the IC50 worked out at 1.22 µM. Compound `COC[C@]1(C(=O)Nc2cncc3ccccc23)CCOc2cc(Cl)c(Cl)cc21` (stereo in doubt) gave a half-inhibitory concentration (IC50) of 3.22 µM.

With `COc1ccccc1OCCNC(=O)c1cc(=O)[nH]c2cccc(OC)c12`, the inhibition runs as follows: (20.0 µM) 84.4%; (50.0 µM) 90.9%. Take `O=C(OCC(O)CO)c1ccccc1Nc1ccnc2cc(Cl)ccc12` (stereo unspecified): the inhibition (20.0 µM) is 3.82% and the inhibition (50.0 µM) is -5.01%.

Consider `CC(C)Oc1ccc(N(C(=O)c2cnc[nH]2)C(C(=O)NCCc2cccc(F)c2)c2cccnc2)cc1` (stereo unspecified), for which the IC50 was 0.712 µM. For `CC(C)N(C(=O)Cc1c(O)c2ccccc2[nH]c1=O)C(C)C`, the inhibition runs as follows: (20.0 µM) -0.198%; (50.0 µM) -0.251%. For `Cc1noc(C)c1CCNC(=O)Nc1cn(CC(C)C)c(=O)c2ccccc12`, in that order: 39% and 94.5%. Take `O=C(Nc1cncc2ccccc12)[C@@H]1COc2ccc(Cl)cc21` (stereo in doubt): the IC50 is 0.555 µM. In the case of `O=C(Nc1nncn1C1CC1)C1CCOc2ccccc21` (stereo unspecified), the inhibition reads like this: (20.0 µM) -1.27%; (50.0 µM) 2.15%. Consider `CCN(Cc1ccc(F)cc1)c1cc(Cl)cc(CC(=O)Nc2cncc3ccccc23)c1`, for which the IC50 was determined as 1.41 µM. In the case of `CCOC(=O)c1ccc(NC(=O)Nc2cn(C)c(=O)c3ccccc23)cc1`, the inhibition runs as follows: (20.0 µM) 17.1%; (50.0 µM) 4.9%. In turn, `Cn1nc(C(=O)NC(C)(C(=O)Nc2cncc3ccccc23)c2ccc(Cl)c(Cl)c2)cc1C#N` (stereo unspecified) gave a concentration for half-maximal inhibition (IC50) of 10.3 µM. With `CCOC(=O)N1CCC(NC(=O)Nc2cn(C)c(=O)c3ccccc23)CC1`, the inhibition (20.0 µM) was -1.08% and the inhibition (50.0 µM) came out at 1.92%. On the same counts, the results for `Cc1ccc(NC(=O)Nc2cn(CC(C)C)c(=O)c3ccccc23)c(Br)c1` are 8.16% and 9.66%. For the compound `Cn1cc(NC(=O)N(Cc2ccco2)CC2CCCO2)c2ccccc2c1=O` (stereo unspecified), the inhibition was determined as 2.81% (20.0 µM) and 0.168% (50.0 µM).

On to `CC(NC(=O)CN)(C(=O)Nc1cncc2ccccc12)c1ccc(Cl)c(Cl)c1` (stereo unspecified), for which the half-maximal inhibitory concentration (IC50) turned out to be 3.38 µM. Consider `CC(CCc1ccco1)NC(=O)Nc1cn(C)c(=O)c2ccccc12` (stereo unspecified), for which the inhibition (20.0 µM) was determined as 32.6% and the inhibition (50.0 µM) worked out at 67.9%.

In the case of `Cc1cccnc1NC(=O)Nc1cn(CC(C)C)c(=O)c2ccccc12`, the inhibition was -0.204% (20.0 µM) and -1.16% (50.0 µM). In the case of `CC(C)Cn1cc(NC(=O)N2CCC(c3ccccc3)C2)c2ccccc2c1=O` (stereo unspecified), the inhibition (20.0 µM) is -2.21% and the inhibition (50.0 µM) was 0.973%.

For the compound `O=C(Cc1cc(Cl)cc(NCc2ccc(Br)cc2)c1)Nc1cncc2ccccc12`, the half-inhibitory concentration (IC50) stood at 1.43 µM. On to `Cc1ccncc1NC(=O)Cc1ccc2[nH]ncc2c1`, for which the inhibition reads like this: (20.0 µM) -1.11%; (50.0 µM) 0.248%.

For the compound `C=CC(=O)N(c1ccc(CCC#N)cc1)C(C(=O)NC(C)(C)C)c1cccnc1` (stereo unspecified), the inhibition is, setting by setting: (20.0 µM) 1.48%; (50.0 µM) 3.3%. As for `COc1ccc(OC)c(CCNC(=O)Nc2cn(CC(C)C)c(=O)c3ccccc23)c1`, the inhibition runs as follows: (20.0 µM) 1.12%; (50.0 µM) 2.5%.

As to `Cn1cc(NC(=O)NCCc2ccc(Cl)cc2)c2ccccc2c1=O`, the inhibition (20.0 µM) is -6.47% and the inhibition (50.0 µM) is -3.22%. Consider `COc1ccc(NC(=O)Nc2cn(C)c(=O)c3ccccc23)cc1OC`, for which the inhibition is 1.6% (20.0 µM) and 10.8% (50.0 µM). Take `Cn1cc(NC(=O)N2CCN(C(=O)c3ccco3)CC2)c2ccccc2c1=O`: the inhibition runs as follows: (20.0 µM) -4.83%; (50.0 µM) -2.88%. With `Cc1ccn2cnnc2c1NC(=O)C1CCOc2ccccc21` (stereo unspecified), the inhibition was -11.2% (20.0 µM) and -4.74% (50.0 µM). `CCn1c(=O)c(-c2cc[nH]n2)cc2c(C)nc(N)nc21`: the inhibition is -0.487% (20.0 µM) and 4.38% (50.0 µM).

`Cc1cc(Cn2nnc3c(-c4ccco4)nc(N)nc32)ccc1N`: the inhibition is 1.89% (20.0 µM) and -1.33% (50.0 µM).

For the compound `COc1cc(OC)nc(O[C@H](C(=O)O)C(OC)(c2ccccc2)c2ccccc2)n1` (stereo in doubt), the inhibition was -28.4% (20.0 µM) and 2.42% (50.0 µM).

For the compound `O=C1CC(C(=O)Nc2cncc3ccccc23)c2cc(Cl)cc(Cl)c2N1` (stereo unspecified), the half-maximal inhibitory concentration (IC50) turned out to be 3.04 µM. For `COC[C@@]1(C(=O)Nc2cncc3ccccc23)CCOc2cc(Cl)c(Cl)cc21` (stereo in doubt), the IC50 came out at 16.9 µM. With `CC(C)Cn1cc(NC(=O)NCc2ccc3c(c2)OCO3)c2ccccc2c1=O`, the inhibition turned out to be 15.3% (20.0 µM) and 11.2% (50.0 µM).
